What was measured:
[1] = test system: phosphorylation of ERK, KRAS G12D in AGS cells; assay: pERK inhibition assay, KRAS G12D; type: cell-based; conditions: Homo sapiens, 4 hours of incubation
Protocol: (§1) This assay is to measure the ability of test compounds in inhibiting the phosphorylation of ERK, the downstream signaling of KRAS G12C in NCI-H358 cells, KRAS G12D in AGS cells, and KRAS G12V in SW620. NCI-H358 (ATCC-CRL5807) cells, AGS (ATCC-CRL-1739) cells, SW620 (ATCC-CCL-227) cells were all grown and maintained using RPMI-1640 medium (Thermo Fisher Scientific) with 10% fetal bovine serum and 1% penicillin/streptomycin. On the day prior to compound addition, cells were plated in tissue culture-treated 96 well plates (Corning-3699) at a density of 30,000 cell/well, 20,000 cell/well, 30,000 cell/well for NCI-H358, AGS and SW620 respectively, and allowed for attachment overnight. Diluted compounds were then added in a final concentration of 0.5% DMSO. After 4 hours of incubation, the medium was removed, 100 μL of 4% formaldehyde was added, and the assay plates were incubated at room temperature for 20 minutes. The plates were then washed once with phosphate buffered saline (PBS), and permeabilized with 100 μL of chilled methanol for 10 minutes. Non-specific antibody binding to the plates was blocked using 50 μL 1×BSA blocking buffer (Thermo-37520, 10-fold dilution by Phosphate-Buffered Saline Tween (PBST) for at least 1 hour at room temperature.
(§2) The amount of phosphor-ERK was determined using an antibody specific for phosphorylated form of ERK. Primary antibody (pERK, CST-4370, Cell Signaling Technology) was diluted 1:300 in blocking buffer, with 50 μL aliquoted to each well, and incubated overnight at 4° C. Cells was washed five times for 5 minutes with PBST. Secondary antibody (HRP-linked anti-rabbit IgG, CST-7074, Cell Signaling Technology) was diluted 1:1000 in blocking buffer, and 50 μL was added to each well and incubated 1-2 hrs at room temperature. Cells was washed 5 times for 5 minutes with PBST, 100 μL TMB ELISA substrate (abcam-ab171523) were added and gently shake for 20 minutes. 50 μL stop solution (abcam-ab171529) were added, and then read the signal (OD450) by EnVision.
(§3) IC50 was determined by fitting a 4-parameter sigmoidal concentration response model.

AGS cells = assay: Cell viability assay (Cell Counting Kit-8), KRAS G12D; type: cell-based; conditions: Homo sapiens, 72 hrs incubation, CCK-8
Protocol: (§4) The purpose of this cellular assay was to determine the effects of test compounds on the proliferation of human cancer cell lines NCI-H358 (ATCC-CRL5807) cells, AGS (ATCC-CRL-1739) cells, SW620 (ATCC-CCL-227) over a 3-day treatment period by quantifying the amount of NADPH present at endpoint using Cell Counting Kit-8.
(§5) Cells were seeded at 5,000 cells/well (NCI-H358), 2,000 cells/well (AGS) 2,000 cells/well (SW620) in 96-well assay plates (Corning-3699) and incubated overnight. On the day of the assay, diluted compounds were then added in a final concentration of 0.5% DMSO. After 72 hrs incubation, a tenth of the volume of cell counting kit 8 (Dnjindo-CK04) was added into each well. Read the signal (OD450 minus OD650) using EnVision after 2 hrs incubation. IC50 was determined by fitting a 4-parameter sigmoidal concentration response model.

KRAS G12C-BRAF complex = KRAS G12C-BRAF complex (Homo sapiens (Human), UniProt P01116+P62937, G12C); assay: KRAS-BRAF with CYPA (500 nM) interaction assay (TR-FRET), G12C; type: binding; conditions: GMPPNP loaded 6His-KRAS, GST-BRAF RBD, 3 hours
Protocol: (§6) KRAS-BRAF with CYPA (500 nM) Interaction Assay
(§7) In this example, TR-FRET was also used to measure the compound or compound-CYPA dependent disruption of the KRAS G12C-BRAF complex. This protocol was also used to measure disruption of KRAS G12D or KRAS G12V binding to BRAF by a compound of the invention, respectively. In assay buffer containing 25 mM HEPES PH=7.4 (4-(2-hydroxyethyl)-1-piperazineethanesulfonic acid, Thermo, 15630080), 0.002% Tween20, 0.1% BSA, 100 mM NaCl, 5 mM MgCl2, 10 μM GMPPNP (Guanosine 5′-[β,γ-imido]triphosphate trisodium salt hydrate, Sigma, G0635), tagless CYPA, GMPPNP loaded 6His-KRAS proteins, and GST-BRAF^RBD were mixed in a well of a 384-well assay plate at final concentrations of 50 nM, 6.25 nM and 1 nM, respectively. Compound was present in plate wells as a 16-point 3-fold dilution series starting at a final concentration of 10 μM and incubated for 3 hours. A mixture of MAb Anti-6His-XL665 (Cisbio, 61HISXLB) and Mab anti-GST-TB cryptate (Cisbio, 61GSTTLB) was then added at a final concentration of 6.67 nM and 0.21 nM, respectively, and the plate was incubated for an additional 1.5 hours. TR-FRET signal was read on a PHERstar FSX microplate reader (Ex320 nm, Em 665/615 nm). Compounds that facilitate disruption of the KRAS-BRAF complex were identified as those eliciting a decrease in the TR-FRET ratio relative to DMSO control wells.

[2] = test system: phosphorylation of ERK, KRAS G12C in NCI-H358 cells; assay: pERK inhibition assay, KRAS G12C; type: cell-based; conditions: Homo sapiens, 4 hours of incubation
Protocol: as §1, §2, §3

[3] = test system: phosphorylation of ERK, KRAS G12V in SW620; assay: pERK inhibition assay, KRAS G12V; type: cell-based; conditions: Homo sapiens, SW-620; SW620 cells, 4 hours of incubation
Protocol: as §1, §2, §3

[4] = target: KRAS G12D binding to BRAF (Homo sapiens (Human), UniProt P01116+P62937, G12D); assay: KRAS-BRAF with CYPA (500 nM) interaction assay (TR-FRET), G12D; conditions: GMPPNP loaded 6His-KRAS, GST-BRAF RBD, 3 hours
Protocol: as §6, §7

SW620 cells = assay: Cell viability assay (Cell Counting Kit-8), KRAS G12V; type: cell-based; conditions: Homo sapiens, SW-620, 72 hrs incubation, CCK-8
Protocol: as §4, §5

NCI-H358 cells = assay: Cell viability assay (Cell Counting Kit-8), KRAS G12C; type: cell-based; conditions: Homo sapiens, 72 hrs incubation, CCK-8
Protocol: as §4, §5

[5] = target: KRAS G12V binding to BRAF (Homo sapiens (Human), UniProt P01116+P62937, G12V); assay: KRAS-BRAF with CYPA (500 nM) interaction assay (TR-FRET), G12V; conditions: GMPPNP loaded 6His-KRAS, GST-BRAF RBD, 3 hours
Protocol: as §6, §7

KRAS G12V binding to BRAF, sequence (P01116-2 other isoform, or with tags, fused parts or gaps G12V): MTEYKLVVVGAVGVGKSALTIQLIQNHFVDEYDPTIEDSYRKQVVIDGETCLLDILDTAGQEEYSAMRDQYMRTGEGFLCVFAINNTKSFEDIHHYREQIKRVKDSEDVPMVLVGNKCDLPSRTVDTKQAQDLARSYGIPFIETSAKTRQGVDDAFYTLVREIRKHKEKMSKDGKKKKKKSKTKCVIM
KRAS G12V binding to BRAF, sequence (P62937 whole entry): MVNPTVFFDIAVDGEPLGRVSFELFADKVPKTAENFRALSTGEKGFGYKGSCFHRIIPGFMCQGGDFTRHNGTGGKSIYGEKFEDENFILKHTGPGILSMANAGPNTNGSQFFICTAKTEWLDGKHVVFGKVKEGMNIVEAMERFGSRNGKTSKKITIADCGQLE
KRAS G12C-BRAF complex, sequence (P01116-2 other isoform, or with tags, fused parts or gaps G12C): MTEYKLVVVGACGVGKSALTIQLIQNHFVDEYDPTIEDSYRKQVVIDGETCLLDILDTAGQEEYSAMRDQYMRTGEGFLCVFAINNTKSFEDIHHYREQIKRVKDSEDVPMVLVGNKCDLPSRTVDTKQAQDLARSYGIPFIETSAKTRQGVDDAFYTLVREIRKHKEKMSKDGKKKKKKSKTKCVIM
KRAS G12C-BRAF complex, sequence (P62937 whole entry): as the sequence (P62937 whole entry) above
KRAS G12D binding to BRAF, sequence (P01116-2 other isoform, or with tags, fused parts or gaps G12D): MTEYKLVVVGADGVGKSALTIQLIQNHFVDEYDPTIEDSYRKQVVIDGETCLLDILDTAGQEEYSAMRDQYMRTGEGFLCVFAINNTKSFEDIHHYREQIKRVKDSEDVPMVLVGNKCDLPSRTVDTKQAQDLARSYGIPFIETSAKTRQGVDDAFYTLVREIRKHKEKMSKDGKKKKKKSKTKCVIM
KRAS G12D binding to BRAF, sequence (P62937 whole entry): as the sequence (P62937 whole entry) above

Row | SMILES | IC50 [1] [µM] | IC50 (AGS cells) [µM] | IC50 [2] [µM] | IC50 [3] [µM] | IC50 (SW620 cells) [µM] | IC50 (NCI-H358 cells) [µM] | IC50 (KRAS G12C-BRAF complex) [µM] | IC50 [4] [µM] | IC50 [5] [µM]
1 | CCn1c(-c2cc(N3CCOCC3)cnc2[C@H](C)OC)c2c3cc(c(F)cc31)-c1csc(n1)C[C@H](NC(=O)[C@H]1C[C@@H]1C)C(=O)N1CCC[C@H](N1)C(=O)OCC(C)(C)C2 (atropisomer, axis not shown; (M)) [Example 8, (1S,2S)—N-[(7S,13S)-21-ethyl-24-fluoro-(20M)-20-[2-[(1S)-1-methoxyethyl]-5-morpholino-3-pyridyl]-17,17-dimethyl-8,14-dioxo-15-oxa-4-thia-9,21,27,28-tetrazapentacyclo[17.5.2.1^2,5.1^9,13.0^22,26]octacosa-1(25),2,5(28),19,22(26),23-hexaen-7-yl]-2-methyl-cyclopropanecarboxamide] | 0.056 | 1.49 | 0.023 | 0.008 | 0.013 | 0.016 | 0.16 | 1.67 | 0.143
2 | CCn1c(-c2cc(N3CCN(CC(F)(F)F)CC3)cnc2[C@H](C)OC)c2c3cc(c(F)cc31)-c1csc(n1)C[C@H](NC(=O)[C@H]1C[C@@H]1C)C(=O)N1CCC[C@H](N1)C(=O)OCC(C)(C)C2 (atropisomer, axis not shown; (M)) [Example 7, (1S,2S)—N-[(7S,13S)-21-ethyl-24-fluoro-(20M)-20-[2-[(1S)-1-methoxyethyl]-5-[4-(2,2,2-trifluoroethyl)piperazin-1-yl]-3-pyridyl]-17,17-dimethyl-8,14-dioxo-15-oxa-4-thia-9,21,27,28-tetrazapentacyclo[17.5.2.1^2,5.1^9,13.0^22,26]octacosa-1(25),2,5(28),19,22(26),23-hexaen-7-yl]-2-methyl-cyclopropanecarboxamide] | 0.115 | 0.389 | 0.071 | 0.02 | 0.027 | 0.074 | 0.192 | > 10 | 0.697
3 | CCn1c(-c2cc(N3CCN(C)CC3)cnc2[C@H](C)OC)c2c3cc(c(F)cc31)-c1csc(n1)C[C@H](NC(=O)[C@H]1C[C@@H]1C#N)C(=O)N1CCC[C@H](N1)C(=O)OCC(C)(C)C2 [Example 5, (1S,2S)-2-cyano-N-[(7S,13S)-21-ethyl-24-fluoro-(20M)-20-[2-[(1S)-1-methoxyethyl]-5-(4-methylpiperazin-1-yl)-3-pyridyl]-17,17-dimethyl-8,14-dioxo-15-oxa-4-thia-9,21,27,28-tetrazapentacyclo[17.5.2.1^2,5.1^9,13.0^22,26]octacosa-1(25),2,5(28),19,22(26),23-hexaen-7-yl]cyclopropanecarboxamide] | 0.056 | 0.089 | 0.057 | 0.013 | 0.012 | 0.023 |  |  | 

Further lines, with some results ahead:

Row | IC50 [1] [µM] | IC50 (AGS cells) [µM] | IC50 [2] [µM] | IC50 [3] [µM] | IC50 (SW620 cells) [µM] | IC50 (NCI-H358 cells) [µM] | SMILES | IC50 (KRAS G12C-BRAF complex) [µM] | IC50 [4] [µM] | IC50 [5] [µM]
4 | 0.053 | 0.244 | 0.033 | 0.009 | 0.016 | 0.011 | CO[C@@H](C)c1ncc(N2CCOCC2)cc1-c1c2c3cc(c(F)cc3n1CC(F)(F)F)-c1csc(n1)C[C@H](NC(=O)[C@H]1C[C@@H]1C)C(=O)N1CCC[C@H](N1)C(=O)OCC(C)(C)C2 (atropisomer, axis not shown; (M)) [Example 12, (1S,2S)—N-[(7S,13S)-24-fluoro-(20M)-20-[2-[(1S)-1-methoxyethyl]-5-morpholino-3-pyridyl]-17,17-dimethyl-8,14-dioxo-21-(2,2,2-trifluoroethyl)-15-oxa-4-thia-9,21,27,28-tetrazapentacyclo[17.5.2.1^2,5.1^9,13.0^22,26]octacosa-1(25),2,5(28),19,22(26),23-hexaen-7-yl]-2-methyl-cyclopropanecarboxamide] |  |  | 
5 | 0.028 | 0.111 | 0.021 | 0.007 | 0.007 | 0.005 | CCn1c(-c2cc(N3CCOCC3)cnc2[C@H](C)OC)c2c3cc(c(F)cc31)-c1csc(n1)C[C@H](NC(=O)[C@H]1C[C@@H]1C(F)F)C(=O)N1CCC[C@H](N1)C(=O)OCC(C)(C)C2 (atropisomer, axis not shown; (M)) [Example 11, (1S,2S)-2-(difluoromethyl)-N-[(7S,13S)-21-ethyl-24-fluoro-(20M)-20-[2-[(1S)-1-methoxyethyl]-5-morpholino-3-pyridyl]-17,17-dimethyl-8,14-dioxo-15-oxa-4-thia-9,21,27,28-tetrazapentacyclo[17.5.2.1^2,5.1^9,13.0^22,26]octacosa-1(25),2,5(28),19,22(26),23-hexaen-7-yl]cyclopropanecarboxamide] |  |  | 
6 | 0.116 | 0.316 | 0.079 | 0.025 | 0.035 | 0.079 | CCn1c(-c2cc(N3CCN(C)CC3)cnc2[C@H](C)OC)c2c3cc(c(F)cc31)-c1csc(n1)C[C@H](NC(=O)[C@@H]1C[C@H]1C#N)C(=O)N1CCC[C@H](N1)C(=O)OCC(C)(C)C2 [Example 6, (1R,2R)-2-cyano-N-[(7S,13S)-21-ethyl-24-fluoro-(20M)-20-[2-[(1S)-1-methoxyethyl]-5-(4-methylpiperazin-1-yl)-3-pyridyl]-17,17-dimethyl-8,14-dioxo-15-oxa-4-thia-9,21,27,28-tetrazapentacyclo[17.5.2.1^2,5.1^9,13.0^22,26]octacosa-1(25),2,5(28),19,22(26),23-hexaen-7-yl]cyclopropanecarboxamide] |  |  | 

From patent publication US20250250284A1, “MACROCYCLE COMPOUNDS USEFUL AS KRAS INHIBITORS” (Hoffmann-La Roche Inc., priority 2022, published 2025)
